Tests used:
[1] = Plasma pharmacokinetics, acute study (single oral administration); format: in vivo, CD1 female mice; details: for Cmax / AUC(0-t) / Tmax / HL / Cmax ±SD / AUC 0-last: plasma analyte
Procedure: (§1) The experiments were performed in CD1 female mice, 7 weeks of age, (body weight 25 ± 2 g) obtained from Envigo RMS SrL (Udine, Italy). They were maintained under specific-pathogen-free conditions with constant temperature and humidity, according to institutional guidelines regularly checked by a certified veterinarian. Animal experimentation was conducted in conformance with the following laws, regulations, and policies governing the care and use of laboratory animals: Italian Governing Law (D. l. 26/2014; Authorization n.19/2008-A issued March 6, 2008 by the Ministry of Health). Mario Negri Institutional Regulations and Policies providing internal authorizations for persons conducting animal experiments (Quality Management System Certificate –UNI EN ISO 9001:2008 – Reg. N 86121). The experimental protocol was reviewed by the Mario Negri Institute Ethical Committee and approved by the Italian Ministry of Health (Aut. Min. No 489/2016-Pr).
(§2) The pharmacokinetics of oral Bio-nFeR was investigated in comparison to that of the reference formulation NCI-FeR, after single administration of multiple doses and after chronic administrations, daily for 2 weeks or bi-daily for 1 week. Bio-nFeR was reconstituted at 20 mg/mL fenretinide to allow the administration of 200 mg/Kg fenretinide that corresponded to the highest dose. The doses of 100, 50 and 10 mg/Kg were administered by using serial dilution of the 20 mg/mL solution.
(§3) NCI-FeR prepared, as per the NCI instructions, at 11.6% w:w fenretinide:internal capsule components, was diluted with corn oil to obtain the treatment solutions at the concentrations of 20, 15 and 10 mg/mL, corresponding to the administered doses of 200, 150 and 100 mg/Kg respectively.
(§4) The oral pharmacokinetics of Bio-nFeR were investigated in four independent groups of 24 mice, randomized to receive different treatment with the following fenretinide equivalent doses: 10, 50, 100 and 200 mg/Kg. The drug was administered by oral gavage and after treatment, blood samples were taken at 15 and 30 min and at 1, 2, 4, 8/10, 24 and 48 h and collected in heparinized tubes from the retro-orbital plexus of the mice under isoflurane anesthesia. Mice were then sacrificed by cervical dislocation and liver, kidney and brain were removed and immediately frozen in dry-ice for future determination. To obtain plasma, blood was centrifuged at 4000 rpm for 10 min at 4 °C. To evaluate fenretinide and metabolites excretion, urine and faeces were collected over a 0–24 h and 24–48 h periods. The collection was performed in three mice per group of treatment, individually housed into metabolic cages for urine and faeces collection. All the biological samples were stored at − 20 °C until analysis. To compare the absorption of Bio-nFeR to NCI-FeR and to study the bioavailability, another independent groups of 24 mice were randomized to receive an oral dose of 200 mg/Kg of NCI-FeR. Blood samples were taken at the time reported above. Twenty-four hours fractions of urine and faeces were collected in three mice per group of treatment. Plasma and the other biological specimens were stored at − 20 °C until analysis. Chronic study: the oral pharmacokinetic of Bio-nFeR in comparison with NCI-FeR were also investigated after chronic administrations. Mice were divided in three independent groups, randomized to receive a single treatment of 150 mg/Kg or different repeated treatments of 150 mg/Kg, daily for 2 weeks (12 days on and 2 days off), or 100 mg/Kg bi-daily for 1 week (5 days on 2 days off). Bio-nFeR and NCI-FeR were administered by oral gavage, collecting blood samples at 0.5, 1, 2, 4, 8/10 and 24 h, the day of the single treatment and at 0, 1, 2, 4, 8/10, 24 and 48 h after the last dose of both the chronic treatments. The procedures of blood collection, plasma preparation, sacrifice of mice and storing of samples were as reported in acute study. […]

[2] = Plasma pharmacokinetics, chronic study (150 mg/Kg single vs daily for 2 weeks); format: in vivo, CD1 female mice; details: for AUC(0-t): plasma, po, 150 mg/kg
Procedure: as §1, §2, §3, §4

[3] = female, CD1, mouse, plasma, po, 200 mg/kg, single oral Bio-nFeR, 4-HPR dose 200mg/Kg, Suppl. Table 2 B
[4] = female, CD1, mouse, plasma, po, 200 mg/kg, single oral NCI-nFeR, 4-HPR dose 200mg/Kg, Suppl. Table 2 B
[5] = single oral Bio-nFeR 10 mg/kg, Suppl. Table 2 A
[6] = single oral Bio-nFeR 50 mg/kg, Suppl. Table 2 A
[7] = single oral Bio-nFeR 100 mg/kg, Suppl. Table 2 A
[8] = single oral Bio-nFeR 200 mg/kg, Suppl. Table 2 A
[9] = single oral Bio-nFeR, 4-HPR dose 200mg/Kg, Suppl. Table 2 B
[10] = single oral NCI-nFeR, 4-HPR dose 200mg/Kg, Suppl. Table 2 B
[11] = female, CD1, mouse, plasma analyte, oral Bio-nFeR 150 mg/kg daily, 2 week
[12] = female, CD1, mouse, plasma analyte, oral Bio-nFeR 150 mg/kg, Day 1
[13] = plasma analyte, oral Bio-nFeR 150 mg/kg daily, 2 week
[14] = plasma analyte, oral Bio-nFeR 150 mg/kg, Day 1

## CC1=C(/C=C/C(C)=C/C=C/C(C)=C/C(=O)Nc2ccc(O)cc2)C(C)(C)CCC1 [4-HPR, 4-hydroxy (phenyl)retinamide, reference compound]
[1]; female, CD1, mouse, plasma, po, 10 mg/kg, mice, single oral Bio-nFeR 10 mg/kg, Suppl. Table 2 A
  Cmax: 601 ng/mL
[1]; female, CD1, mouse, plasma, po, 10 mg/kg, single oral Bio-nFeR 10 mg/kg, Suppl. Table 2 A
  AUC(0-t): 6750 ng·h/mL
[1]; female, CD1, mouse, plasma, po, 10 mg/kg, single oral Bio-nFeR 10 mg/kg, Suppl. Table 2 A, read-out: Tmax
  Tmax: 2 h
[1]; female, CD1, mouse, plasma, po, 50 mg/kg, mice, single oral Bio-nFeR 50 mg/kg, Suppl. Table 2 A
  Cmax: 3650 ng/mL
[1]; female, CD1, mouse, plasma, po, 50 mg/kg, single oral Bio-nFeR 50 mg/kg, Suppl. Table 2 A
  AUC(0-t): 39200 ng·h/mL
[1]; female, CD1, mouse, plasma, po, 50 mg/kg, single oral Bio-nFeR 50 mg/kg, Suppl. Table 2 A, read-out: Tmax
  Tmax: 4 h
[1]; female, CD1, mouse, plasma, po, 100 mg/kg, mice, single oral Bio-nFeR 100 mg/kg, Suppl. Table 2 A
  Cmax: 5340 ng/mL
[1]; female, CD1, mouse, plasma, po, 100 mg/kg, single oral Bio-nFeR 100 mg/kg, Suppl. Table 2 A
  AUC(0-t): 66300 ng·h/mL
[1]; female, CD1, mouse, plasma, po, 100 mg/kg, single oral Bio-nFeR 100 mg/kg, Suppl. Table 2 A, read-out: Tmax
  Tmax: 4 h
[1]; female, CD1, mouse, plasma, po, 200 mg/kg, mice, single oral Bio-nFeR 200 mg/kg, Suppl. Table 2 A
  Cmax: 6840 ng/mL
[1]; female, CD1, mouse, plasma, po, 200 mg/kg, single oral Bio-nFeR 200 mg/kg, Suppl. Table 2 A
  AUC(0-t): 113000 ng·h/mL
[1]; female, CD1, mouse, plasma, po, 200 mg/kg, single oral Bio-nFeR 200 mg/kg, Suppl. Table 2 A, read-out: Tmax
  Tmax: 2 h
[1]; [3]
  AUC(0-t): 113000 ng·h/mL
  Cmax: 6840 ng/mL
[1]; female, CD1, mouse, plasma, po, 200 mg/kg, single oral Bio-nFeR, 4-HPR dose 200mg/Kg, Suppl. Table 2 B, read-out: Tmax
  Tmax: 2 h
[1]; [4]
  AUC(0-t): 97900 ng·h/mL
  Cmax: 8460 ng/mL
[1]; female, CD1, mouse, plasma, po, 200 mg/kg, single oral NCI-nFeR, 4-HPR dose 200mg/Kg, Suppl. Table 2 B, read-out: Tmax
  Tmax: 4 h
[1]; female, CD1, mouse, plasma, mice, oral Bio-nFeR, different doses, read-out: elimination half-life (converted)
  half-life: ~420 min
[1]; [5]
  HL: 7.5 h
[1]; [6]
  HL: 7.3 h
[1]; [7]
  HL: 6.5 h
[1]; [8]
  HL: 7.2 h
[1]; [9]
  HL: 7.2 h
[1]; [10]
  HL: 6.7 h
[2]; [11]
  AUC(0-t): 85100 ng·h/mL
  Cmax at 2 weeks: 6810 ng/mL
  Tmax at 2 weeks: 4 h
[2]; [12]
  AUC(0-t): 56900 ng·h/mL
  Cmax: 6350 ng/mL
[2]; female, CD1, mouse, plasma analyte, oral Bio-nFeR 150 mg/kg, Day 1, read-out: Tmax
  Tmax: 20 h
[2]; [13]
  HL: 5.7 h
[2]; [14]
  HL: 5.3 h

## CC1=C(/C=C/C(C)=C/C=C/C(C)=C/C(=O)Nc2ccc(O)cc2)C(C)(C)CCC1=O [4-oxo-4-HPR]
[1]; mice, single oral Bio-nFeR 10 mg/kg, Suppl. Table 2 A
  Cmax ±SD: 505.1 ng/mL
[1]; mice, single oral Bio-nFeR 50 mg/kg, Suppl. Table 2 A
  Cmax ±SD: 2389.1 ng/mL
[1]; mice, single oral Bio-nFeR 100 mg/kg, Suppl. Table 2 A
  Cmax ±SD: 3109.1 ng/mL
[1]; mice, single oral Bio-nFeR 200 mg/kg, Suppl. Table 2 A
  Cmax ±SD: 4071.2 ng/mL
[1]; [5]
  AUC 0-last: 4145.3 ng·h/mL
  HL: 5.2 h
  Tmax: 2 h
[1]; [6]
  AUC 0-last: 24372.6 ng·h/mL
  HL: 5.4 h
  Tmax: 4 h
[1]; [7]
  AUC 0-last: 38500.3 ng·h/mL
  HL: 4.8 h
  Tmax: 4 h
[1]; [8]
  AUC 0-last: 58677.2 ng·h/mL
  HL: 5.3 h
  Tmax: 4 h
[1]; [9]
  AUC 0-last: 58677.2 ng·h/mL
  Cmax ±SD: 4071.2 ng/mL
  HL: 5.3 h
  Tmax: 4 h
[1]; [10]
  AUC 0-last: 39875.4 ng·h/mL
  Cmax ±SD: 3372.3 ng/mL
  HL: 5.4 h
  Tmax: 4 h
[1]; study of multiple doses, after Bio-nFeR administration
  amount of metabolite in plasma in comparison to 4-HPR: about 50%
[2]; after single and repeated treatment
  relative percent amount of metabolite versus 4-HPR in plasma: about 50%
[2]; [13]
  AUC 0-last: 54434.2 ng·h/mL
  Cmax ±SD: 4282.6 ng/mL
  HL: 4.7 h
  Tmax: 4 h
[2]; [14]
  AUC 0-last: 33726.1 ng·h/mL
  Cmax ±SD: 2979.4 ng/mL
  HL: 3.9 h
